The values that follow come from patent US6664398B2, “Derivatives of erythromycin, their preparation process and their use as medicaments” (Aventis Pharma S.A., priority 1999, dated 2003).

What all share (assay type): cell-based
The test system of assay [1] is Haemophilus Influenzae 351HT3, 351CB12, 351CA1 and 351GR6. Briefly: Activity on gram-negative bacterial strains. The protocol: (§1) Method of dilutions in liquid medium A series of tubes is prepared in which the same quantity of nutritive sterile medium is distributed. Increasing quantities of the product to be studied are distributed into each tube, then each tube is sown with a bacterial strain. After incubation for twenty-four hours in a heating chamber at 37° C., the growth inhibition is evaluated by transillumination, which allows the minimal inhibitory concentrations (M.I.C.) to be determined, expressed in micrograms/cm^3. The following results were obtained with the product of Example 1: (reading after 24 hours)

For assay [2], the system named is S. pneumoniae 030GR20. Briefly: Method of dilutions in liquid medium (M.I.C.). To be noted: reading after 24 hours, 37° C. On the procedure:
as §1

For assay [3], the system named is S. sanguis 02SGr10i. Kind of assay: Method of dilutions in liquid medium (M.I.C.). To be noted: reading after 24 hours, 37° C. The protocol: as §1
The subject of assay [4] is S. agalactiae 02B1HT1. Kind of assay: Method of dilutions in liquid medium (M.I.C.). As to conditions: reading after 24 hours, 37° C. The protocol:
as §1

For assay [5], the system named is S. pneumoniae 030CR18c. Briefly: Method of dilutions in liquid medium (M.I.C.). To be noted: reading after 24 hours, 37° C. The protocol:
as §1

Assay [6] concerns S. pneumoniae 030SJ5i. Briefly: Method of dilutions in liquid medium (M.I.C.). To be noted: reading after 24 hours, 37° C. The protocol: as §1
Assay [7] has as its system S. aureus 011GO25i. Briefly: Method of dilutions in liquid medium (M.I.C.). As to conditions: reading after 24 hours, 37° C. The protocol: as §1
Assay [8] has as its system S. faecium 02D3HT1. Briefly: Method of dilutions in liquid medium (M.I.C.). As to conditions: reading after 24 hours, 37° C. On the procedure:
as §1

Assay [9] concerns S. pneumoniae 030SJ1c. Kind of assay: Method of dilutions in liquid medium (M.I.C.). As to conditions: reading after 24 hours, 37° C. The protocol: as §1
In assay [10] the test system is S. pneumoniae 032UC1. Briefly: Method of dilutions in liquid medium (M.I.C.). As to conditions: reading after 24 hours, 37° C. The protocol:
as §1

Assay [11] has as its system Streptococcus gr.G 02GOGR5. Kind of assay: Method of dilutions in liquid medium (M.I.C.). To be noted: reading after 24 hours, 37° C. On the procedure:
as §1

The subject of assay [12] is S. aureus 011UC4. Kind of assay: Method of dilutions in liquid medium (M.I.C.). To be noted: reading after 24 hours, 37° C. The protocol: as §1
Assay [13] relates to S. pneumoniae 030RO1i. Kind of assay: Method of dilutions in liquid medium (M.I.C.). As to conditions: reading after 24 hours, 37° C. The protocol: as §1
Assay [14] concerns S. pyogenes 02A1UC1. Briefly: Method of dilutions in liquid medium (M.I.C.). To be noted: reading after 24 hours, 37° C. The protocol:
as §1

Assay [15] concerns S. faecalis 02D2DU15c. Briefly: Method of dilutions in liquid medium (M.I.C.). As to conditions: reading after 24 hours, 37° C. The protocol:
as §1

Assay [16] deals with S. agalactiae 02B1SJ1c. Kind of assay: Method of dilutions in liquid medium (M.I.C.). To be noted: reading after 24 hours, 37° C. The protocol:
as §1

Assay [17] concerns S. epidermidis 012GO11i. Kind of assay: Method of dilutions in liquid medium (M.I.C.). As to conditions: reading after 24 hours, 37° C. The protocol: as §1
Assay [18] concerns S. pneumoniae 030PW23c. Kind of assay: Method of dilutions in liquid medium (M.I.C.). As to conditions: reading after 24 hours, 37° C. On the procedure: as §1
In assay [19] the test system is S. mitis 02MitCB1. Briefly: Method of dilutions in liquid medium (M.I.C.). To be noted: reading after 24 hours, 37° C. The protocol: as §1
Assay [20] has as its system S. mitis 02MitGR16i. Briefly: Method of dilutions in liquid medium (M.I.C.). As to conditions: reading after 24 hours, 37° C. On the procedure:
as §1

Assay [21] deals with S. faecalis 02D2UC1. Kind of assay: Method of dilutions in liquid medium (M.I.C.). To be noted: reading after 24 hours, 37° C. On the procedure: as §1

Consider `CC[C@H]1OC(=O)[C@H](C)C(=O)[C@H](C)[C@@H](O[C@@H]2O[C@H](C)C[C@H](N(C)C)[C@H]2O)[C@](C)(OC)C[C@@H](C)C(=O)[C@H](C)[C@H]2N(CCCCn3ccc(-c4cccnc4)n3)C(=O)O[C@]12C` [Example 1, 11,12-dideoxy-3-de[(2,6-dideoxy-3-C-methyl-3-O-methyl-α-L-ribohexopyranosyl)oxy]-6-O-methyl-3-oxo-12,11-[oxycarbonyl[[4-[3-(3-pyridinyl)-1H-pyrazol-1-yl]butyl]imino]]-erythromycin], for which the “activity on gram-negative bacterial strains” value in assay [1] is given as “useful activity”. Moreover, the “minimal inhibitory concentrations (M.I.C.)” value in [2] is 0.02 micrograms/cm^3; in assay [3], 0.02 micrograms/cm^3; in assay [4] it was 0.02 micrograms/cm^3; in assay [5] it was 0.300 micrograms/cm^3; in [6], 0.040 micrograms/cm^3; in assay [7], 0.600 micrograms/cm^3. The “minimal inhibitory concentrations (M.I.C.)” value is recorded as 0.02 micrograms/cm^3 in assay [8]; 0.150 micrograms/cm^3 in [9]; 0.02 micrograms/cm^3 in assay [10]; 0.02 micrograms/cm^3 in assay [11]; 0.600 micrograms/cm^3 in assay [12] (S. aureus 011UC4+ 50% serum); 0.040 micrograms/cm^3 in assay [12] (S. aureus 011UC4). The “minimal inhibitory concentrations (M.I.C.)” value in assay [13] worked out at 0.150 micrograms/cm^3; in assay [14], 0.02 micrograms/cm^3; in [15] it was 5.000 micrograms/cm^3; in assay [16], 0.050 micrograms/cm^3; in [17] it was 0.040 micrograms/cm^3; in assay [18], 0.02 micrograms/cm^3. Besides, the “minimal inhibitory concentrations (M.I.C.)” value in [19], in assay [20] and in [21] was 0.02 micrograms/cm^3 throughout.
